In ChEMBL document CHEMBL5653615 (J Biol Chem, 2013):

How the values were obtained:
[1] = biological target: T1, Serine/threonine-protein kinase A-Raf (Homo sapiens) (UniProt P10398); test: Inhibition of human ARAF at 18.6 nM by HotSpot assay relative to control
T1 sequence (whole entry): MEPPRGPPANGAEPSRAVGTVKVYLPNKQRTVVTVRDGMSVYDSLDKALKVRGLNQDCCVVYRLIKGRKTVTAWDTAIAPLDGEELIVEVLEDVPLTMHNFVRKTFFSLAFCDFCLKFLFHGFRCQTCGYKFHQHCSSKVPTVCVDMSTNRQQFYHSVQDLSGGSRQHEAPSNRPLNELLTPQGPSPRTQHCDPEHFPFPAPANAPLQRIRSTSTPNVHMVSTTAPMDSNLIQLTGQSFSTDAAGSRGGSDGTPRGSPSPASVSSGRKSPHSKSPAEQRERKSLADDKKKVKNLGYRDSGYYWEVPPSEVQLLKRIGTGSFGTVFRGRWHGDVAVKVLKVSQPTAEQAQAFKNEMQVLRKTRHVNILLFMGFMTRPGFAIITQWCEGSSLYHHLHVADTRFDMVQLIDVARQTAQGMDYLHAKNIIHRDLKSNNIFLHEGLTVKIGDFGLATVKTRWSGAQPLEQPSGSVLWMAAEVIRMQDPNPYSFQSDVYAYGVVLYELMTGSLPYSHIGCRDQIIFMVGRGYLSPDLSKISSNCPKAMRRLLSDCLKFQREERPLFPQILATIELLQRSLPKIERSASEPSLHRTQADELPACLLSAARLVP

[2] = biological target: T2, Mitogen-activated protein kinase kinase kinase 5 (Homo sapiens) (UniProt Q99683); test: Inhibition of human ASK1 at 18.6 nM by HotSpot assay relative to control
T2 sequence (whole entry): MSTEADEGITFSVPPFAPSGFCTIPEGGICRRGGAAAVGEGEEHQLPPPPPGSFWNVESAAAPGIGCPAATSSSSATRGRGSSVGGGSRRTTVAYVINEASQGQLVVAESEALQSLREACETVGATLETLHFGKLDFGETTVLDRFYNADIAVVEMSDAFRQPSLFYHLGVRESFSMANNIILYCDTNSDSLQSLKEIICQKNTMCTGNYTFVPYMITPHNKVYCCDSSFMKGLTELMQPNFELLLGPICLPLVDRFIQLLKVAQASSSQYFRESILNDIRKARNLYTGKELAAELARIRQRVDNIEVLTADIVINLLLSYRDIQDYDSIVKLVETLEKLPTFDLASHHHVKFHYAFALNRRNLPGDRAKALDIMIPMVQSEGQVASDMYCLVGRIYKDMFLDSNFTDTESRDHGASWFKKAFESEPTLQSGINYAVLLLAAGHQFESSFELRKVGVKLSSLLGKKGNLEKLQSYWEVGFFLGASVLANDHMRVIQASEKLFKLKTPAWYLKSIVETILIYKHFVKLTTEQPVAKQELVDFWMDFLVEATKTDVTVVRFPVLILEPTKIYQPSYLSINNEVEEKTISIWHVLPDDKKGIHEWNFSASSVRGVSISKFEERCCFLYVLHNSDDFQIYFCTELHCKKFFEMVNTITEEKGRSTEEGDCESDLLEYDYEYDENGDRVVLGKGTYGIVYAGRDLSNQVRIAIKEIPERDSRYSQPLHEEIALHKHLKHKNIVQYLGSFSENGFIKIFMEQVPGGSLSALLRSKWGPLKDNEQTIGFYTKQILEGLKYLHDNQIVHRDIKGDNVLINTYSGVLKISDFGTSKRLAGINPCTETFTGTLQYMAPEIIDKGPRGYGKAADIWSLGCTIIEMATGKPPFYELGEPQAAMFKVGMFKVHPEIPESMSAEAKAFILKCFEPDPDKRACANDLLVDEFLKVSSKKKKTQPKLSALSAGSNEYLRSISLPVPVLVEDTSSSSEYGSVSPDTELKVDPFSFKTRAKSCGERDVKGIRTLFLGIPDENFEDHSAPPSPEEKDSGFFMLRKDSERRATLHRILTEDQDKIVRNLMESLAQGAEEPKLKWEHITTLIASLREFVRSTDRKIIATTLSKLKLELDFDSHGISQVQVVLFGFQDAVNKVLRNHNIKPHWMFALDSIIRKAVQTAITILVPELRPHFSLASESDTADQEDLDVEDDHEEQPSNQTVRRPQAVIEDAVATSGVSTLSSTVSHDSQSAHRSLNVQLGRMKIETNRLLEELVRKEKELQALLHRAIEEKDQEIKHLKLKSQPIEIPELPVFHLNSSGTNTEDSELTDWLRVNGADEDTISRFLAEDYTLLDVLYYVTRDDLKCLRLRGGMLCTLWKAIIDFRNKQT

[3] = biological target: T3, Dual specificity tyrosine-phosphorylation-regulated kinase 2 (Homo sapiens) (UniProt Q92630); test: Inhibition of human DYRK2 at 18.6 nM by HotSpot assay relative to control
T3 sequence (whole entry): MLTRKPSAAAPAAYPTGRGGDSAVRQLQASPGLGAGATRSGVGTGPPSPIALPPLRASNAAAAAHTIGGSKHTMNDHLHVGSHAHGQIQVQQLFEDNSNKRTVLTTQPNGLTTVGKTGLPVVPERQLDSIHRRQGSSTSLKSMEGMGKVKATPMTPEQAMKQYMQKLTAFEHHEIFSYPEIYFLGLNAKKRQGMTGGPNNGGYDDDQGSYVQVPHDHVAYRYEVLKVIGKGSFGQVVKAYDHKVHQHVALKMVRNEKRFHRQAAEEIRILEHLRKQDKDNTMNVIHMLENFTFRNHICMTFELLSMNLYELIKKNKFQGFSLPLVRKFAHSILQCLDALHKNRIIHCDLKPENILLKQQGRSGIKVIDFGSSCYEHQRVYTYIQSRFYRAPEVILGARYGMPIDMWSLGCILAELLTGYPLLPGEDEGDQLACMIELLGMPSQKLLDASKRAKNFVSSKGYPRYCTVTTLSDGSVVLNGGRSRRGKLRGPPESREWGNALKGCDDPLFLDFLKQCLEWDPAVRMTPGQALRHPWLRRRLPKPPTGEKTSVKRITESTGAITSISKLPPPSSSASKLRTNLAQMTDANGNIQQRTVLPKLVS

[4] = biological target: Tyrosine-protein kinase FRK (Homo sapiens) (UniProt P42685); test: Inhibition of human FRK at 18.6 nM by HotSpot assay relative to control
[5] = biological target: Receptor-interacting serine/threonine-protein kinase 2 (Homo sapiens) (UniProt O43353); test: Inhibition of human RIPK2 at 18.6 nM by HotSpot assay relative to control
[6] = biological target: RAC-beta serine/threonine-protein kinase (Homo sapiens) (UniProt P31751); test: Inhibition of human AKT2 at 1.82 nM by HotSpot assay relative to control
[7] = biological target: Serine/threonine-protein kinase N1 (Homo sapiens) (UniProt Q16512); test: Inhibition of human PRK1 at 1.82 nM by HotSpot assay relative to control
Sequence of Serine/threonine-protein kinase N1 (Homo sapiens) (Q16512 2-942 limits assumed): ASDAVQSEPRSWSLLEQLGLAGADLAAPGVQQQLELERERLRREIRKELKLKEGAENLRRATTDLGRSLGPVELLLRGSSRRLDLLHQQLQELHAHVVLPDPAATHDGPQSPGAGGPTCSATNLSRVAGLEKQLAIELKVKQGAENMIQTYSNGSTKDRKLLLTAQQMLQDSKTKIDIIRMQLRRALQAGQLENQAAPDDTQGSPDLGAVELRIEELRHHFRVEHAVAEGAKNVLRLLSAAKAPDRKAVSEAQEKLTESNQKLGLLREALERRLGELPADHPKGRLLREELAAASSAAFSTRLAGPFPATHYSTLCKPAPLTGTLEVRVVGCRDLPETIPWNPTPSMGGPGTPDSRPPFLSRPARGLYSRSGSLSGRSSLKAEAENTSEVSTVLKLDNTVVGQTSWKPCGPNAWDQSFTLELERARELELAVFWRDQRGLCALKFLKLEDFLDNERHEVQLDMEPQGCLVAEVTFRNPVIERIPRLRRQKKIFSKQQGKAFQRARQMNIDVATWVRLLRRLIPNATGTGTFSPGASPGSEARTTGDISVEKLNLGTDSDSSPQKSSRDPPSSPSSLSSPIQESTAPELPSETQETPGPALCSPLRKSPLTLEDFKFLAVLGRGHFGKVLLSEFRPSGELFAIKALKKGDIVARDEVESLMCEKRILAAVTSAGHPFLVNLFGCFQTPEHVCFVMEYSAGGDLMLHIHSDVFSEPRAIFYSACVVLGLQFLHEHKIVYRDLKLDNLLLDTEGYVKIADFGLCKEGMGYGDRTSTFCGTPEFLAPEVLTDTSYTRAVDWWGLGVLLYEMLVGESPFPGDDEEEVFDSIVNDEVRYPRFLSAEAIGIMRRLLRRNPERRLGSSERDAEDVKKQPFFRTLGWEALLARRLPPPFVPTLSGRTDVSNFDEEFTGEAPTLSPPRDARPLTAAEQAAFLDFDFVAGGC

Sequence of RAC-beta serine/threonine-protein kinase (Homo sapiens) (P31751 whole entry): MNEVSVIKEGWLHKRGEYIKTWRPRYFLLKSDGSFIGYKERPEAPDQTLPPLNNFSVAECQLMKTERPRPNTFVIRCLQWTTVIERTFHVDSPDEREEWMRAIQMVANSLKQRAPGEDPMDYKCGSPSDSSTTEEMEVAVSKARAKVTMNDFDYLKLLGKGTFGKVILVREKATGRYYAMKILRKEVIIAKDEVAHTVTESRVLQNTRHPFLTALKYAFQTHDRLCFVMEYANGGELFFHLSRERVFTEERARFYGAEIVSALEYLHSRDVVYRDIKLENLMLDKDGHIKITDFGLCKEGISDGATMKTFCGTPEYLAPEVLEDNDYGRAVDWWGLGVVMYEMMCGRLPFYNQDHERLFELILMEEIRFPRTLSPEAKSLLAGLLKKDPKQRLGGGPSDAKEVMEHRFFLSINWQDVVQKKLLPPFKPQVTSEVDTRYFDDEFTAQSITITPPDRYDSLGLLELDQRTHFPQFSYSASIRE
Sequence of Receptor-interacting serine/threonine-protein kinase 2 (Homo sapiens) (O43353 whole entry): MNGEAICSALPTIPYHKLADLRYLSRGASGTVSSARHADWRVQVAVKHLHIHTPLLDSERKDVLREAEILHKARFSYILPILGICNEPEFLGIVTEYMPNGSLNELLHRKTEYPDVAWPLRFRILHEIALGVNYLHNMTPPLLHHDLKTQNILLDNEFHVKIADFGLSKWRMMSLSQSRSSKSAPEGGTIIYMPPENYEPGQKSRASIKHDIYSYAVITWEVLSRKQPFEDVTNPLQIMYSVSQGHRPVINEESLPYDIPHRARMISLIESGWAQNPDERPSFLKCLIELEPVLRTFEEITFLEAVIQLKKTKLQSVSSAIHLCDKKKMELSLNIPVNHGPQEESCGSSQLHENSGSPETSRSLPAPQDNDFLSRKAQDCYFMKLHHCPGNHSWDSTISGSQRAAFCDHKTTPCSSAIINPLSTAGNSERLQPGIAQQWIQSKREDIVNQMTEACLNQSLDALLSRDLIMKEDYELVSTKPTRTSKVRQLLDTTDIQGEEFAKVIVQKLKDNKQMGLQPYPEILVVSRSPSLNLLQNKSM
Sequence of Tyrosine-protein kinase FRK (Homo sapiens) (P42685 whole entry): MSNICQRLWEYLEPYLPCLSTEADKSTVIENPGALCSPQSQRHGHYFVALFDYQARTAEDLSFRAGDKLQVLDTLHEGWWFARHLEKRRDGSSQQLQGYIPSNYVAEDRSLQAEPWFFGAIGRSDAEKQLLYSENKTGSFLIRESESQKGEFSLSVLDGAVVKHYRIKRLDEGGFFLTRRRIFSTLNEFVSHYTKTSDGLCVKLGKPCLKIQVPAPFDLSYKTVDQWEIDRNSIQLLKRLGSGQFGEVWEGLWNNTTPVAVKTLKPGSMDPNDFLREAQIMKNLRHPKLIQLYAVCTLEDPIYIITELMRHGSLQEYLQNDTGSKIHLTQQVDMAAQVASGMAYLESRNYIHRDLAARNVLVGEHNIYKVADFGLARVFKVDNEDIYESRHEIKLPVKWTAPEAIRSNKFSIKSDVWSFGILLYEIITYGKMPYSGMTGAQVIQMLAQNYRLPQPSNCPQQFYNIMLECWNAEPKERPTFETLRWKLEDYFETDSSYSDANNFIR

| SMILES | inhibition [1] | inhibition [2] | inhibition [3] | inhibition [4] | inhibition [5] | inhibition [6] | inhibition [7] |
| --- | --- | --- | --- | --- | --- | --- | --- |
| C[C@]1(O)C[C@@H](c2nc(-c3ccc4ccc(-c5ccccc5)nc4c3)c3c(N)nccn32)C1 | 5.16% | -8.46% | -1.48% | -0.1% | 12.1% | – | – |
| C[C@@]1(C(=O)Nc2ccc(F)nc2)CCCN1c1nc(Nc2cc(C3CC3)n[nH]2)c2cccn2n1 | – | – | – | – | – | -0.4% | -8.35% |
